Test results published in publication PMC7747594, “Protease-activated receptor-2 ligands reveal orthosteric and allosteric mechanisms of receptor inhibition” (Communications Biology, 2020).
Several values for one entry are separate records, joined by “and”; a condition that tells them apart may be missing. Identical values can stand only once. Like-named read-outs stand apart in the source and are kept apart here. Square brackets hold non-standard residues; d marks the D form. Peptide text beside a SMILES is read from it. * marks the point of attachment. Orn = NCCC[C@H](N)C(=O)O; 2Furoyl = O=C(c1ccco1)*

Columns and labels:
[1] = molecular target: T1, hPAR2 (Homo sapiens, UniProt P55085); experiment: Europium-tagged competition binding assay against Eu-tagged-2f-LIGRLO(dtpa)-NH2 on CHO-hPAR2 cells; design: expressed in transfected cells; host or cells: Flp-In CHO; settings: determined with Eu-tagged-2f-LIGRLO(dtpa)-NH2; read-out: equilibrium dissociation constant pKA / pKB (converted)
T1 sequence (P55085 26-397): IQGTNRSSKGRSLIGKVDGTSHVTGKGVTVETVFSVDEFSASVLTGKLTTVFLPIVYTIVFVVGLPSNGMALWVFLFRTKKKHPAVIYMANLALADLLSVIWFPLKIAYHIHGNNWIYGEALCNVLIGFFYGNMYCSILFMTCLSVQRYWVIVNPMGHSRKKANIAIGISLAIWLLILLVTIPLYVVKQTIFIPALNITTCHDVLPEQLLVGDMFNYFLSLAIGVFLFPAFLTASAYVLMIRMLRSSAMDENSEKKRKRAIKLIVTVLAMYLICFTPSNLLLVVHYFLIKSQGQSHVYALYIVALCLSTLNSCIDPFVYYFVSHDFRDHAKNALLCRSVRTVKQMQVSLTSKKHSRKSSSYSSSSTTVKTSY
Experimental: CHO-hPAR2 cells were seeded overnight in 384-well plate at 2.5 × 10^4 cells/well and blocked with 2% BSA for 60 min. […] Cells were washed 3× with PBS supplemented with 20 µM EDTA, 0.01% Tween and 0.2% BSA followed by addition of DELFIA Enhancement Solution (Perkin Elmer) for 90 min. Time-resolved fluorescence was measured with PHERAstar FS reader (BMG Labtech).
(§1) Binding data were analysed using the One site – Fit Ki model in GraphPad Prism 8 (GraphPad Software) to determine binding affinity. Pharmacology in vitro potency data was analysed with a 4-parameter logistic fit using the equation y = Bottom + (Top − Bottom)/[…] where y is the response, x is the 10-logarithm of the drug concentration, Bottom is no response and Top is full response in GraphPad Prism 8 or Genedata Screener (Genedata). pEC50 and pIC50 data are presented as mean ± standard error of the mean (s.e.m.) derived from the number of independent experiments stated. Schild slope analysis was calculated using Graphpad Prism 8 Gaddum/Schild EC50 global fitting (shared model parameters between all data sets) competitive model. […] Schild slope quantifies the shifts in agonist response in the presence of antagonist, a Schild slope of 1 indicates the antagonist is competitive and extra-sum-of-squares F-test (p < 0.05) was used to compare the calculated Schild slope against a hypothetical Schild slope of 1. […] The relative activity was calculated using (EmaxEC50’)/(Emax’EC50) with the Hill slope help constant at 1. EC50’ and Emax’ denote the EC50 and Emax in the absence of allosteric modulator, while EC50 and Emax denote those measured in the presence of allosteric modulator. When the Hill slope = 1, the relative activity plot approaches an asymptote corresponding to the estimate of the γ value.

[2] = molecular target: T1, hPAR2; experiment: Schild and allosteric model analysis of Ca^2+ mobilisation in CHO-hPAR2 cells (2f-LIGRL-NH2 or trypsin); type: cell-based; design: key to Relative activity: (Emax·EC50')/(Emax'·EC50), Hill slope held at 1; Emax: scale not given here
Experimental: (§2) Cells were loaded with Fluo-8 NW calcium dye (AAT Bioquest) for 30 min at 37 °C before compounds in Hank’s balanced salt solution (HBSS, ThermoFisher Scientific) with 20 mM HEPES (ThermoFisher Scientific), 0.1% bovine serum albumin (BSA, Sigma) and 0.5% DMSO were added and simultaneously evaluated for changes in intracellular [Ca^2+] using FLIPR TETRA (Molecular Devices) to detect agonism. For each concentration, the difference between the maximum peak Ca^2+ response and baseline response is reported. […] Antagonism experiments were also carried out on 1321N1-PAR2[WT], 1321N1-PAR2[F154A], and 1321N1-PAR2[G157C] as described. Experiments with trypsin in 1321N1-hPAR2 cells were performed in the presence of 1 µM Vorapaxar (Chemtronica) to remove any interference of PAR1 activity. […] Antagonism experiments for CHO-hPAR2 and HT-29 cells were performed in 96-well plates at 30,000 cells/well. Cells were loaded with Fluo-3 AM calcium dye (Sigma-Aldrich) for 60 min at 37 °C in HBSS with 1% FBS, 0.2% pluronic acid, 20 mM HEPES and 2.5 mM probenecid prior to the addition of antagonist. The antagonist was pre-incubated for 60 min at 37 °C followed by the addition of bovine trypsin (30 nM) at EC80. Intracellular [Ca^2+] flux was measured using FLIPR TETRA (Molecular Devices) and the difference between the maximum peak Ca^2+ response and baseline response is reported.
as §1

[3] = molecular target: T1, hPAR2; experiment: pERK1/2 HTRF assay, inhibition of SLIGRL-NH2 in U2OS-hPAR2 cells; type: cell-based; settings: SLIGRL-NH2, U2OS-hPAR2; mean ± s.e.m.; read-out: pERK1/2 (hPAR2) pIC50 (converted)
Experimental: Phosphorylation of ERK1/2 was measured in U2OS-hPAR2 cells using Phospho-ERK1/2 (Thr202/Tyr204) assay kit (64ERKPEH Cisbio) and the 2 plate manufacturer’s protocol with the following modifications. Cells were seeded in McCoy’s 5A media containing 10% FBS at 15,000 cells per well in 384-well plates and incubated overnight at 37 °C, 5% CO2. Antagonist compounds (30 µM–1 nM) were incubated with the cells for 30 min prior to the addition of agonist SLIGRL-NH2 (10 µM) at EC80 and further incubation for 5 min at 37 °C. The supernatant was removed from the wells and lysis buffer was added to the cells and incubated with shaking at room temperature for 30 min. The cell lysate was transferred into a small-volume 384-well plate containing detection antibodies and incubated for 4 h at room temperature in the dark. Plates were read for HTRF signal on PHERAstar (BMG LabTech). In addition, phosphorylation of ERK1/2 was measured in CHO-hPAR2 using AlphaLISA SureFire Ultra pERK1/2 (Thr202/Tyr204) (Perkin Elmer). Cells were seeded at a density of 2000 cells per well in a 384-well proxiplate and incubated overnight. […] After incubation, cell lysis buffer was added with shaking for 30 min. Antibodies and beads were added and incubated for 4 h at room temperature. AlphaLISA signal was measured using a PHERAstar (BMG LabTech).
as §1

[4] = molecular target: T1, hPAR2; experiment: Ca^2+ flux assay (FLIPR), inhibition of SLIGRL-NH2 activation in 1321N1-hPAR2 cells; type: cell-based; settings: SLIGRL-NH2, 1321N1-hPAR2 cells; mean ± s.e.m.; read-out: Ca^2+ flux (hPAR2) pIC50 (converted)
Experimental: as §2, §1

[5] = molecular target: T1, hPAR2; experiment: IP1 HTRF assay, inhibition of SLIGRL-NH2 in 1321N1-hPAR2 cells; type: cell-based; settings: SLIGRL-NH2, 1321N1-hPAR2 cells; mean ± s.e.m.; read-out: IP1 (hPAR2) pIC50 (converted)
Experimental: Inhibition of PAR2-induced inositol-1-phosphate (IP1) production was measured in 1321N1-hPAR2 cells using IP-One Gq HTRF assay kit (Cisbio). […] Next, EC80 of SLIGRL-NH2 (70 µM) supplemented with 50 mM LiCl was added and incubated for 60 min at 37 °C. Detection of IP1 production was performed according to the manufacturer’s protocol and HTRF was measured using PHERAstar (BMG LabTech). Data were normalised to [IP1] using a standard curve.
as §1

[6] = molecular target: T1, hPAR2; experiment: β-arrestin-2 recruitment assay, inhibition of SLIGRL-NH2 in U2OS-hPAR2 cells; type: cell-based; settings: SLIGRL-NH2, U2OS-hPAR2; mean ± s.e.m.; read-out: β-arrestin (hPAR2) pIC50 (converted)
Experimental: β‐Arrestin-2 recruitment was measured in U2OS-hPAR2 cells using the DiscoverX assay kit, according to the manufacturer’s instructions. Briefly, cells were seeded in McCoy’s 5A media containing 10% FBS at 4000 cells per well in 384-well plates and incubated overnight at 37 °C, 5% CO2. Antagonist compounds (30 µM–1 nM) were incubated with the cells for 30 min prior to the addition of agonist SLIGRL-NH2 (10 µM) at EC80 and further incubation for 90 min at 37 °C. Working detection solution (12 µl) was then added to each well, incubated at room temperature in the dark for 60 min and the chemiluminescence signal read on the EnVision microplate reader (Perkin Elmer).
as §1

[7] = molecular target: T2, rat PAR2 (Rattus norvegicus, UniProt Q63645); experiment: Ca^2+ flux assay, inhibition of SLIGRL-NH2 activation in rat KNRK cells; type: cell-based
T2 construct: a rat KNRK cell line with endogenous expression of rat PAR2; host or cells: rat KNRK cells
T2 sequence (Q63645 26-397): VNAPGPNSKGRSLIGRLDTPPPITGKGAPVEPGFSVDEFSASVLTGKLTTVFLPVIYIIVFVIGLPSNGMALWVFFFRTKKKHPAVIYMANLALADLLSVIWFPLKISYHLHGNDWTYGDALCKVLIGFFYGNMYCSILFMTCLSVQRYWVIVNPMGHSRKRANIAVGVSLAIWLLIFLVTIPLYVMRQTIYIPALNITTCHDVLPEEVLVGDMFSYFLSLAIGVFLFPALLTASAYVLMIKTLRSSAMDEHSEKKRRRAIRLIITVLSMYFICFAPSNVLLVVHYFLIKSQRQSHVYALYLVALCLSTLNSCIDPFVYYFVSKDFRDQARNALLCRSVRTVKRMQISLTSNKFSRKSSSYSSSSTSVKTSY

[8] = molecular target: T1, hPAR2; experiment: Ca^2+ flux assay, inhibition of trypsin activation in 1321N1-hPAR2 cells (with 1 µM Vorapaxar); type: cell-based; settings: 1321N1-hPAR2 cells, 1 µM Vorapaxar
[9] = test system: parental 1321N1 cells; experiment: Ca^2+ flux assay, agonist mode, parental 1321N1 cells; type: cell-based; design: Ca2+ response (Fig 2c), individual replicate values: unit not given here; settings: control
Experimental: as §2

[10] = agonist in presence of AZ3451 0.1 µM
[11] = agonist in presence of AZ3451 0.3 µM
[12] = agonist in presence of AZ3451 1 µM
[13] = agonist in presence of AZ3451 3 µM
[14] = agonist in presence of AZ3451 10 µM
[15] = agonist in presence of AZ3451 30 µM, CHO-hPAR2, Ca^2+
[16] = SLIGRL-NH2, rat PAR2 in KNRK cells, mean ± s.e.m., read-out: Ca^2+ flux (rPAR2) pIC50 (converted)

## CC[C@H](C)[C@H](NC(=O)[C@H](CC(C)C)NC(=O)c1ccco1)C(=O)NCC(=O)N[C@@H](CCCN=C(N)N)C(=O)N[C@@H](CC(C)C)C(=O)N[C@@H](CCCN)C(N)=O [2f-LIGRLO-NH2, reference compound] (2Furoyl-LIGRL[Orn]-NH2)
[1]
  Kb: 794 nM

## CC[C@H](C)[C@H](NC(=O)[C@H](CC(C)C)NC(=O)c1ccco1)C(=O)NCC(=O)N[C@@H](CCCNC(=N)N)C(=O)N[C@@H](CC(C)C)C(N)=O [2f-LIGRL-NH2, reference compound]
[2]
  EC50: 250 nM

## Trypsin
[2]; agonist alone, AZ3451 0 µM
  Emax: 102
  Relative activity: 1
[2]; agonist alone, AZ3451 0 µM, read-out: EC50
  EC50: 6 nM
[2]; [10]
  Emax: 96
  Relative activity: 0.43
[2]; [11]
  Emax: 90
  Relative activity: 0.28
[2]; [12]
  Emax: 90
  Relative activity: 0.20
[2]; [13]
  Emax: 89
  Relative activity: 0.17
[2]; [14]
  Emax: 74
  Relative activity: 0.12
[2]; [15]
  Emax: 61
  Relative activity: 0.09

## C[C@@H](C1CCOCC1)n1c(-c2cc3c(cc2Br)OCO3)nc2cc(C(=O)Nc3ccc(C#N)cc3)ccc21 [AZ7126]
[3]
  IC50: 200 nM
[4]
  IC50: 7.94 nM
[5]
  IC50: 79.4 nM
[6]
  IC50: 63.1 nM
[7]; [16]
  IC50: 5.01 nM
[8]
  shape of inhibition of trypsin-induced Ca^2+ mobilisation: biphasic inhibition curves

## CC[C@H](C)[C@H](NC(=O)[C@H](CC1CCCCC1)NC(=O)c1ccno1)C(=O)NCc1cccc(C(=O)N2CCC(CN)CC2)c1 [GB110, reference compound]
[9]; [compound],M -4.30103
  Ca2+ response (Fig 2c), individual replicate values: 2.5854 and 0.2936 and 4.934 and 1.6114
[9]; [compound],M -4.77815
  Ca2+ response (Fig 2c), individual replicate values: 2.299 and 3.846 and -3.259
[9]; [compound],M -5.25527
  Ca2+ response (Fig 2c), individual replicate values: 4.705 and 2.815 and -0.222 and 3.388
[9]; [compound],M -5.73239
  Ca2+ response (Fig 2c), individual replicate values: 1.44 and 1.382
[9]; [compound],M -6.20952
  Ca2+ response (Fig 2c), individual replicate values: 3.273 and 1.783 and 1.382 and 0.4082
[9]; [compound],M -6.68664
  Ca2+ response (Fig 2c), individual replicate values: 2.872 and -6.524
[9]; [compound],M -7.16376
  Ca2+ response (Fig 2c), individual replicate values: -2.227 and 0.1217 and -2.055 and -7.498
[9]; [compound],M -7.64088
  Ca2+ response (Fig 2c), individual replicate values: -2.514 and 3.502 and -1.826 and -6.754
[9]; [compound],M -8.118
  Ca2+ response (Fig 2c), individual replicate values: -3.774 and -3.545 and -0.5085
[9]; [compound],M -8.59512
  Ca2+ response (Fig 2c), individual replicate values: -10.4777 and -3.774 and -5.436 and -3.201

## C[C@@H](C1CCCCC1)n1c(-c2cc3c(cc2Br)OCO3)nc2cc(C(=O)Nc3ccccc3)ccc21 [AZ8935]
[3]
  IC50: 1260 nM
[4]
  IC50: 20 nM
[5]
  IC50: 302 nM
[6]
  IC50: 380 nM
[7]; [16]
  IC50: 7.94 nM
[8]
  shape of inhibition of trypsin-induced Ca^2+ mobilisation: biphasic inhibition curves

## CCc1ccc2c(F)ccc(C(O)c3ncc[nH]3)n12 (stereo not shown) [AZ0107]
[7]
  IC50: 3160 nM
